In ChEMBL document CHEMBL1201862, “PubChem BioAssay data set” (2004) one finds AC50 and EC50 data, which are given here for 21 molecules.

Experiment [1] addresses Cytochrome P450 2D6 (Homo sapiens, UniProt P10635).
In experiment [2] the target is Cytochrome P450 2C9 (Homo sapiens, UniProt P11712).
Experiment [3] can be described thus: alpha-synuclein stem-loop luciferase translation blockers – H4 neuroglioma cells, luminescence, confirmation (AID 1988). It counts as functional, cell-based.
Experiment [4] in a line: luciferase reporter signal suppression in cells – H4 neuroglioma cells, luminescence, dose response (AID 1990). Type of experiment: functional, cell-based.
Experiment [5] is described as follows: Luminescence Cell-Based Dose Response HTS to Identify Inhibitors of 5'UTR Stem-Loop Driven Prion Protein mRNA Translation in H4 Neuroglioblastoma Cells. [Related pubchem assays: 1827 (Project Summary), 1813 (Primary HTS)]. Type of experiment: functional.
Experiment [6] has as its target Cytochrome P450 3A4 (Homo sapiens, UniProt P08684).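 Note: CYP3A4 tested as one member of a cytochrome P450 panel screen.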
Experiment [7] has as its target Cytochrome P450 2C19 (Homo sapiens, UniProt P33261). Description: Cytochrome panel assay with activity outcomes. Panel member name: p450-cyp2c19 Compounds with AC50 equal or less than 10 uM are considered active. It counts as functional. The following applies: read-out: AC50.

Molecules are shown by their SMILES. Activity calls are given as the source filed them. Bounds are passed on as bounds.

Cytochrome P450 2C9, sequence (P11712 whole entry): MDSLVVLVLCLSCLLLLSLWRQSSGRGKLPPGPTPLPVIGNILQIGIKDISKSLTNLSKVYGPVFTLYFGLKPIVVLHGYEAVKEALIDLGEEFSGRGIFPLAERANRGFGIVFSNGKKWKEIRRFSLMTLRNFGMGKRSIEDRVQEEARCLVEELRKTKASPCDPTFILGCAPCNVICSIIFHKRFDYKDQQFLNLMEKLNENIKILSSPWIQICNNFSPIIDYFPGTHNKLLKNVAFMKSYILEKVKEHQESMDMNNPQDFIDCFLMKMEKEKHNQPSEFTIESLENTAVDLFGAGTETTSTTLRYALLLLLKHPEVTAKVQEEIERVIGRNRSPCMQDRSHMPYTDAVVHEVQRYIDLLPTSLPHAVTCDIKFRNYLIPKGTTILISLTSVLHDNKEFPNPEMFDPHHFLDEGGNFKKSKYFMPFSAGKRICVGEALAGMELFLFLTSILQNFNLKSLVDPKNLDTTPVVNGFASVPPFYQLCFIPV
Cytochrome P450 3A4, sequence (P08684 whole entry): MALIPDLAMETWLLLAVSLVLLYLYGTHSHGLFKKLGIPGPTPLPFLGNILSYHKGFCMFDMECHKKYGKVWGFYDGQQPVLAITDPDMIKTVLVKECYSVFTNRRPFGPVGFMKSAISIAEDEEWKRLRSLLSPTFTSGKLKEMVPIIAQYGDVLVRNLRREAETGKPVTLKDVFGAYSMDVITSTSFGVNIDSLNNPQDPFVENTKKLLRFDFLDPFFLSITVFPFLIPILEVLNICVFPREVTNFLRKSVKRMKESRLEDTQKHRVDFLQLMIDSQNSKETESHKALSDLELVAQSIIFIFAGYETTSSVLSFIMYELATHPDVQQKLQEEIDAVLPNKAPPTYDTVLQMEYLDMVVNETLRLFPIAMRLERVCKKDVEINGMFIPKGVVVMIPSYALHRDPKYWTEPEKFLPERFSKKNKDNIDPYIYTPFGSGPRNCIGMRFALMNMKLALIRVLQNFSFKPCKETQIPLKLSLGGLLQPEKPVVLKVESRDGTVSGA
Cytochrome P450 2D6, sequence (P10635 whole entry): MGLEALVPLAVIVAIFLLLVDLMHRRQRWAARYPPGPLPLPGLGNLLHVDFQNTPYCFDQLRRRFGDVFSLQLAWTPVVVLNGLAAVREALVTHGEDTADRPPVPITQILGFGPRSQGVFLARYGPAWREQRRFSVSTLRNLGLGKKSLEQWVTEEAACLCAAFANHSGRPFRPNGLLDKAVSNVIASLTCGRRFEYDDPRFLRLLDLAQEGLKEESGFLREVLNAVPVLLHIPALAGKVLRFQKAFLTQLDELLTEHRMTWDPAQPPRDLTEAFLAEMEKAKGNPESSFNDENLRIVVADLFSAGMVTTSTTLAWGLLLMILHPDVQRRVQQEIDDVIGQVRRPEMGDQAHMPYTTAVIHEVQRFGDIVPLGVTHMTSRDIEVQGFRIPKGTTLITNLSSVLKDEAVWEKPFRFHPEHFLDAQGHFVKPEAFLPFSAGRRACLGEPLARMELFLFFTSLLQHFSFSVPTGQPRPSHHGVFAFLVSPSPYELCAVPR
Cytochrome P450 2C19, sequence (P33261 whole entry): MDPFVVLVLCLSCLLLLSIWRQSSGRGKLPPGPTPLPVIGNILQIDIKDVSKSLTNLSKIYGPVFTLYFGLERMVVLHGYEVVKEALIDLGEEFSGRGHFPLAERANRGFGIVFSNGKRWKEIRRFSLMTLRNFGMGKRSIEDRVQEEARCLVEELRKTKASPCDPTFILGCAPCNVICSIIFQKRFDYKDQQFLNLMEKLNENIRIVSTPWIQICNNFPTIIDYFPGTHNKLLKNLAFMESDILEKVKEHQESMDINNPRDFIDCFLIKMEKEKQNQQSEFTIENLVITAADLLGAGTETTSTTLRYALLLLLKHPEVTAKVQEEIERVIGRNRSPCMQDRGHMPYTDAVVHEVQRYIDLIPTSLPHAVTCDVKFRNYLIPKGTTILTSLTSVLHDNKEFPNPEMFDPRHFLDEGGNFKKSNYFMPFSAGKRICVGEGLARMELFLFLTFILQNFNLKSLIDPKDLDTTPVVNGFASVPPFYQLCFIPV

Turning to `Cc1cc(C)c(/C=C2/C(=O)Nc3ccccc32)[nH]1`, the AC50 was 0.398 µM (inconclusive) in experiment [1] and 2.51 µM (inconclusive) in experiment [2].

On to `c1ccc(Nc2ncnc3ccc(-c4ccoc4)cc23)cc1`, for which the AC50 in experiment [1] is 20 µM (inconclusive).

For the molecule `COc1ccc2[nH]cc(CCNc3ncncc3-c3c(C)noc3C)c2c1`, the concentration at half-maximal activity (AC50) in experiment [1] is 20 µM (inconclusive); in experiment [2], 1.26 µM (inconclusive).

For `COc1ccc(NC(=O)c2cc(S(=O)(=O)N3CCCCC3)c[nH]2)cc1Cl`, the EC50 is > 120 µM (not active) in experiment [3], 23.7 µM (active) in experiment [4] and 18.4 µM (active) in experiment [5].

Turning to `COC(=O)c1c(C)oc2ccc(N(C(=O)c3ccncc3)S(=O)(=O)c3ccc(C)cc3)cc12`, the EC50 in experiment [3] was 8.07 µM (active); in experiment [4], > 120 µM (not active); in experiment [5], 10.9 µM (active).

Consider `CN(C)CCNC(=O)C(=O)NCC1OCCCN1S(=O)(=O)c1cccs1` (centres undefined), for which the EC50 in experiment [3], in experiment [4] and in experiment [5] was > 120 µM (not active) in each case.

Regarding `Cc1ccccc1NC(=O)NC1(C(=O)N2CCOCC2)CCCCC1`, the concentration giving a half-maximal response (EC50) in experiment [3], in experiment [4] and in experiment [5] was > 120 µM (not active) throughout.

Regarding `c1ccc(-c2ccc(N3CC4(CCNCC4)C3)cc2)cc1`, the AC50 in experiment [1] and in experiment [6] was 25.1 µM (inconclusive) each time.

`CC12CCC(C(=O)Nc3cccc4ccccc34)(C1Br)C2(C)C` (centres undefined): the AC50 in experiment [1] was 20 µM (inconclusive); in experiment [2], 2.51 µM (inconclusive).

For `Cc1ccc(NC(=O)CN2CCC(NC(=O)c3cccc(F)c3)CC2)cc1C`, the half-maximal effective concentration (EC50) in experiment [3] was > 120 µM (not active); in experiment [4], > 120 µM (not active); in experiment [5], 21.6 µM (active).

For `CCCCC#Cc1nc(N)c2ncn([C@@H]3O[C@@H](C(=O)NCC)[C@H](O)[C@@H]3O)c2n1`, the AC50 is 15.8 µM (inconclusive) in experiment [6], 39.8 µM (inconclusive) in experiment [7] and 25.1 µM (inconclusive) in experiment [2].

For `COc1ccc(-n2c(SCC(=O)Nc3ccccc3)nnc2-c2ccoc2C)cc1`, the EC50 is 15.9 µM (active) in experiment [3], > 120 µM (not active) in experiment [4] and 29.7 µM (active) in experiment [5].

As to `COc1cccc(Cn2c(=O)c(C)nc3cnc(Nc4ccccc4)nc32)c1`, the AC50 in experiment [1] was 1 µM (inconclusive).

For the molecule `COc1ccc(-n2c(=O)c(CCc3ccccc3)nc3cnc(OC)nc32)cc1`, the figures for the AC50 in experiment [1] and in experiment [2] were 20 µM (inconclusive) and 7.94 µM (inconclusive), respectively.

In the case of `O=C1c2ccccc2NC(c2ccc(F)cc2)N1Cc1ccco1` (centres undefined), the AC50 in experiment [1] was 0.398 µM (inconclusive); in experiment [6] it was 14.1 µM (inconclusive).

As for `O=c1cnc2cnc(Nc3ccccc3)nc2n1C1CC1`, the concentration at half-maximal activity (AC50) in experiment [6] was 25.1 µM (inconclusive); in experiment [7], 20 µM (inconclusive); in experiment [2], 31.6 µM (inconclusive).

For the molecule `Cc1cccc(/C=C2\CCC(=C3SCCCS3)C2=O)c1`, the EC50 in experiment [3] is 8.14 µM (active); in experiment [4], 5.22 µM (active); in experiment [5] it was 9.28 µM (active).

On to `CC(=O)Nc1ccc(S(=O)(=O)NC(CC(=O)NCCC2=CCCCC2)C(C)C)cc1` (centres undefined), for which the AC50 in experiment [1] is 0.708 µM (inconclusive); in experiment [2], 8.91 µM (inconclusive).

Consider `c1ccc2sc(N3CCN(Cc4ccc5c(c4)OCO5)CC3)nc2c1`, for which the AC50 in experiment [1] is 39.8 µM (inconclusive); in experiment [2], 7.94 µM (inconclusive).

For `C/C(=N\OCc1cccc(C(=O)O)c1)c1ccc(Cl)cc1`, the EC50 in experiment [3] is 4.77 µM (active); in experiment [4], 7.12 µM (inconclusive); in experiment [5], 0.254 µM (active).

As for `COc1ccccc1CNc1ncncc1-c1cccc(NS(C)(=O)=O)c1`, the AC50 in experiment [1] is 12.6 µM (inconclusive).
